In patent US10219516B2, “Molecules having pesticidal utility, and intermediates, compositions, and processes, related thereto” (priority 2015, dated 2019):
Where two headings read alike, the source gives them in different places.

Assays:
[1] = test system: Cabbage Looper (Trichoplusia ni, TRIPNI); test: Bioassay on Cabbage Looper (CL), 128-well diet tray assay; format: in vivo; settings: Trichoplusia ni
Experimental: (§1) Certain molecules disclosed in this document were tested against BAW and CL using procedures described in the following examples. In the reporting of the results, the “BAW & CL Rating Table” was used (See Table Section).
Bioassays on CL were conducted using a 128-well diet tray assay. one to five second instar CL larvae were placed in each well (3 mL) of the diet tray that had been previously filled with 1 mL of artificial diet to which 50 μg/cm^2 of the test molecule (dissolved in 50 μL of 90:10 acetone-water mixture) had been applied (to each of eight wells) and then allowed to dry. Trays were covered with a clear self-adhesive cover, vented to allow gas exchange, and held at 25° C., 14:10 light-dark for five to seven days. Percent mortality was recorded for the larvae in each well; activity in the eight wells was then averaged. The results are indicated in the table entitled “Table ABC: Biological Results” (See Table Section).

[2] = test system: Beet Armyworm (Spodoptera exigua, LAPHEG); test: Bioassay on Beet Armyworm (BAW), 128-well diet tray assay; format: in vivo
Experimental: as §1
Bioassays on BAW were conducted using a 128-well diet tray assay. One to five second instar BAW larvae were placed in each well (3 mL) of the diet tray that had been previously filled with approximately 1.5 mL of artificial diet to which 50 μg/cm^2 of the test molecule (dissolved in 50 μL of 90:10 acetone-water mixture) had been applied (to each of eight wells) and then allowed to dry. Trays were covered with a clear self-adhesive cover, vented to allow gas exchange, and held at 25° C., 14:10 light-dark for five to seven days. Percent mortality was recorded for the larvae in each well; activity in the eight wells was then averaged. The results are indicated in the table entitled “Table ABC: Biological Results” (See Table Section).

[3] = Cabbage Looper, 128-well diet tray assay, read-out: CL rating
[4] = Beet Armyworm, 128-well diet tray assay, read-out: BAW rating
[5] = Species CL (Cabbage Looper), read-out: CL (Biological Results, rating)
[6] = Species BAW (Beet Armyworm), read-out: BAW (Biological Results, rating)

Cc1cc(F)cc(C)c1NC(=O)c1cc(NC(=O)[C@H]2[C@H](c3cc(Cl)cc(Cl)c3)C2(Cl)Cl)ccc1Cl (relative stereo) [PF43, trans-2-Chloro-5-(2,2-dichloro-3-(3,5-dichlorophenyl)cyclopropane-1-carboxamido)-N-(4-fluoro-2,6-dimethylphenyl)benzamide]
pest or weed control at 50 µg/cm2 [1, 3]: 50 to 100%
pest or weed control at 50 µg/cm2 [2, 4]: 50 to 100%

Cc1cc(N(C)C(=O)OC(C)(C)C)ccc1NC(=O)c1cc(NC(=O)[C@H]2[C@H](c3cc(Cl)c(Cl)c(Cl)c3)C2(Cl)Cl)ccc1Cl (relative stereo) [F218, trans-tert-Butyl-(4-(2-chloro-5-(2,2-dichloro-3-(3,4,5-trichlorophenyl)cyclopropane-1-carboxamido)benzamido)-3-methylphenyl)(methyl)carbamate]
pest or weed control at 50 µg/cm2 [1, 5]: 50 to 100%
pest or weed control at 50 µg/cm2 [2, 6]: 50 to 100%

N#CSc1ccc(NC(=O)c2cc(NC(=O)[C@H]3[C@H](c4cc(Cl)cc(Cl)c4)C3(Cl)Cl)ccc2Cl)cc1 (relative stereo) [PF45, trans-2-Chloro-5-(2,2-dichloro-3-(3,5-dichlorophenyl)cyclopropane-1-carboxamido)-N-(4-thiocyanatophenyl)benzamide]
pest or weed control at 50 µg/cm2 [1, 3]: 50 to 100%
pest or weed control at 50 µg/cm2 [2, 4]: 50 to 100%

Cc1cc(F)ccc1NC(=O)c1cc(NC(=O)[C@H]2[C@H](c3cc(Cl)c(Cl)c(Cl)c3)C2(Cl)Cl)ccc1Cl (relative stereo) [PF47, trans-2-Chloro-5-(2,2-dichloro-3-(3,4,5-trichlorophenyl)cyclopropane-1-carboxamido)-N-(4-fluoro-2-methylphenyl)benzamide]
pest or weed control at 50 µg/cm2 [1, 3]: 50 to 100%
pest or weed control at 50 µg/cm2 [2, 4]: 50 to 100%

Cc1cc([N+](=O)[O-])ccc1NC(=O)c1cc(NC(=O)[C@H]2[C@H](c3cc(Cl)cc(Cl)c3)C2(Cl)Cl)ccc1Cl (relative stereo) [PF75, trans-2-Chloro-5-(2,2-dichloro-3-(3,5-dichlorophenyl)cyclopropane-1-carboxamido)-N-(2-methyl-4-nitrophenyl)benzamide]
pest or weed control at 50 µg/cm2 [1, 3]: 50 to 100%
pest or weed control at 50 µg/cm2 [2, 4]: 50 to 100%

Cc1c(Cl)cc([C@H]2[C@H](C(=O)Nc3ccc(Cl)c(C(=O)Nc4ccc(F)cc4)c3)C2(Cl)Cl)cc1Cl (relative stereo) [F119, trans-2-Chloro-5-(2,2-dichloro-3-(3,5-dichloro-4-methylphenyl)cyclopropane-1-carboxamido)-N-(4-fluorophenyl)benzamide]
pest or weed control at 50 µg/cm2 [1, 5]: 50 to 100%
pest or weed control at 50 µg/cm2 [2, 6]: 50 to 100%

Nc1c(F)ccc(NC(=O)c2cc(NC(=O)C3C(c4ccc(F)c(Br)c4)C3(Cl)Cl)ccc2Cl)c1F (stereo not drawn) [F625, N-(3-Amino-2,4-difluorophenyl)-5-(3-trans-(3-bromo-4-fluorophenyl)-2,2-dichlorocyclopropane-1-carboxamido)-2-chlorobenzamide]
pest or weed control at 50 µg/cm2 [1, 3]: 50 to 100%
pest or weed control at 50 µg/cm2 [2, 4]: 50 to 100%

C[S+]([O-])c1ccc(NC(=O)[C@H]2[C@H](c3cc(Cl)cc(Cl)c3)C2(Cl)Cl)cc1C(=O)Nc1ccc(F)cc1 (relative stereo) [F158, trans-5-(2,2-dichloro-3-(3,5-dichlorophenyl)cyclopropane-1-carboxamido)-N-(4-fluorophenyl)-2-(methylsulfinyl)benzamide]
pest or weed control at 50 µg/cm2 [1, 5]: 50 to 100%
pest or weed control at 50 µg/cm2 [2, 6]: 50 to 100%

O=C(Nc1ncco1)c1cc(NC(=O)[C@H]2[C@H](c3cc(Cl)cc(Cl)c3)C2(Cl)Cl)ccc1Cl (relative stereo) [F145, trans-2-Chloro-5-(2,2-dichloro-3-(3,5-dichlorophenyl)cyclopropane-1-carboxamido)-N-(oxazol-2-yl)benzamide]
pest or weed control at 50 µg/cm2 [1, 5]: 50 to 100%
pest or weed control at 50 µg/cm2 [2, 6]: 50 to 100%

Nc1c(F)ccc(NC(=O)c2cc(NC(=O)C3C(c4cc(F)cc(Br)c4)C3(Cl)Cl)ccc2Cl)c1F (stereo not drawn) [F622, N-(3-Amino-2,4-difluorophenyl)-5-(3-trans-(3-bromo-5-fluorophenyl)-2,2-dichlorocyclopropane-1-carboxamido)-2-chlorobenzamide]
pest or weed control at 50 µg/cm2 [1, 3]: 50 to 100%
pest or weed control at 50 µg/cm2 [2, 4]: 50 to 100%
